# Like-named read-outs stand apart in the source and are kept apart here. Non-standard residues stand in square brackets, D forms with d. Residues, ends and D or L forms follow the SMILES beside them. Aib = CC(C)(N)C(=O)O
# Assays:
# [1] = system: ocular lenses from 8-month-old C57BL/6 mice; experiment: Ex vivo lens stiffness screen, single-point variant of the coverslip method; parameters: species or system mouse; details: 20 mM; for Avg. % Compress.: lenses incubated 12 hours at 37° C., 588.0 mg coverslip weight
# Procedure: An ex vivo screen was conducted to evaluate the effect of multiple compounds on lens stiffness using a more efficient variant of the coverslip method (Cheng, et al., J. Vis. Exp., 111: 53986 (2016). Our variant uses a single measurement point to enable multidrug screening, utilizing a weight deemed optimal based on coverslip quantity-response curves. Previously dissected and frozen eyes from 8-month-old C57BL/6 mice were thawed, and the ocular lenses were removed via micro-dissection. Next, intact ocular lenses were immersed and incubated in test compound solutions at various concentrations for 12 hours at 37° C. Individual washed lenses were placed into a divot in a solution-filled plexiglass measurement chamber, where uncompressed axial diameter was assessed. Then 3 glass coverslips glued together, with a total weight of 588.0 mg, were placed on top of the lens, and the axial diameter was remeasured. Change in lens stiffness was calculated as the ratio between the axial diameter of compressed lens to the axial diameter of the unweighted lens (compressed/uncompressed), with higher ratios indicative of more flexibility. To address an important limitation with ex vivo lens treatment (that lens stiffness increases over time, by default, when the lens is removed from the eye post-mortem), we compared treatment with NAC to freshly dissected 8-month lenses and observed natural stiffening occurred during the 12-hour incubation period (10.34% mean compression, n=10).
# [2] = Maximum soluble concentration in artificial tears; type: physicochemical; details: saline or isotonic
# [3] = system: lens stiffness in 7-month-old C57BL/6 mice; experiment: In vivo efficacy: lens stiffness after eyedrop treatment (Example 4); parameters: species or system mouse; details: for average total compression: eyedrops, 28-day treatment, fluoro compound 200 mM, LACE 1.5% (PBS vehicle); for lens stiffness versus vehicle treated mice: fluoro compound 200 mM (also versus LACE), LACE 1.5%
# Procedure: Rationale and goal: To determine the effect of N-acetylcysteine (NAC) and its variants on reducing lenses stiffness in vivo.
# The following sample groups were tested in 7-month-old C57BL/6 mice: vehicle (artificial tears)(40 mice), N-acetylcysteine 20 mM (20 mice), N-(2-fluoro-2-methyl-1-propylcarbonyl)-cysteine 200 mM (10 mice), LACE (lipoic acid choline ester) 1.5% (PBS vehicle) (10 mice), 2-month-old mice (untreated) (7 mice).
# Vehicle-treated mice averaged 199.34 micrometers total compression (std. dev 32.16). […] Mice treated with LACE averaged 209.68 micrometers total compression (std. dev 28.16).
# [4] = system: Two-month-old C57BL/6 mice; experiment: Toxicology and dosing optimization in mice, 1 week of eyedrops (Example 5); type: in vivo, mouse
# Procedure: A study was conducted to assess the maximum tolerable dose of N-(2-fluoro-2-methyl-1-propylcarbonyl)-cysteine (and its S-acetylated counterpart, N-(2-fluoro-2-methyl-1-propylcarbonyl)-S-acetylcysteine for lens stiffness reduction and to assess via histology whether any safety issues arose from 1 week of treatment with these compounds, particularly in the lens and cornea.
# Two-month-old C57BL/6 mice were treated 2×/day with treatment compounds (see sample groups (n=5) and concentrations below). Animals were assessed for itching and scratching/blinking after dosing, hyperemia, lid swelling, discharge, and squinting, all on a scale of 1-4. Those scoring were blinded to treatment groups. Following euthanasia eyes were fixed and stained with H+E, and corneal and lens anatomy in the two highest concentration groups considered tolerable were assessed.
# [5] = Aqueous humor LC/MS concentration comparison (corneal penetration); type: in vivo, mouse; details: 100 mM eyedrops 2×/day for 1 month; for concentration at 1 h: C57BL/6, mouse, aqueous humor, topical
# Procedure: A study was conducted to assess the degree to which N-(2-fluoro-2-methyl-1-propylcarbonyl)-cysteine penetrated the mouse cornea, as compared to NAC and N-pivaloylcysteine.
# (§1) Eight-month-old C57BL/6 mice were given […] eyedrops of 100 mM N-(2-fluoro-2-methyl-1-propylcarbonyl)-cysteine, 100 mM N-pivaloylcysteine, or 100 mM NAC for 1 month at 2×/day. 10 mice were present in each group. […] Safety via histology was positive.
# On the final day aqueous humor was drawn from the eyes (average of 1-5 μL extracted) 1 hour after final dose, and the concentration of each compound quantified via LC/MS (column: Atlantis T3, 100×2.1 mm, 5 μm; mobile phases: A: Water/Formic Acid (1000/5, v/v), B: Acetonitrile/Methanol/Formic Acid (50/50/0.3, v/v/v).
# [6] = system: Eight-month-old C57BL/6 mice; experiment: One-month eyedrop tolerability and histology in the aqueous humor study; type: in vivo; details: 100 mM eyedrops 2×/day for 1 month
# Procedure: as §1
# [7] = system: lens stiffness in 7-month-old C57BL/6 mice; experiment: Initial in vivo lens stiffness test with NAC eyedrops for one month; parameters: species or system mouse
# Procedure: An initial in vivo test was conducted on NAC utilizing 7-month-old C57BL/6 mice subsequently treated for one month 2×/day with both 100 mM and 20 mM NAC eyedrops (artificial tears was used as the vehicle). During the last day, animals were sacrificed, eyes enucleated, and lenses were removed. Lens stiffness was measured by the same assay as ex vivo, with measurements taken within 5-10 minutes of lens removal. Both a 588 mg and 1047 mg weight were used in the assay.
# [8] = system: ocular lenses from 8-month-old C57BL/6 mice; experiment: Ex vivo lens stiffness screen, single-point variant of the coverslip method; parameters: species or system mouse; details: 1-hour of incubation with NAC
# [9] = system: aged mouse lenses; details: background statement; cited from earlier work
# [10] = listed as N-(2-fluoro-2-methyl-1-oxopropyl)-cysteine
# [11] = drawn 1 hour after final dose, LC/MS
smiles,measurement,setting,value
CCC(C)(C)C(=O)N[C@@H](CS)C(=O)O,Avg. % Compress.,[1],6.29%
CC(=O)SCC(NC(=O)C(C)(C)F)C(=O)O (stereo not drawn),solubility,"[2]; artificial tears, read-out: maximum soluble concentration in artificial tears",300 mM
CC(C)(F)C(=O)N[C@@H](CS)C(=O)O [listing 1 of 2 here],improvement over NAC in ex vivo lens stiffness,[1]; [10],significant improvement
same,"rank of improvement among tested derivatives, ex vivo lens stiffness",[1]; [10],highest mean significance as well as the highest significance vs vehicle
CC(C)(F)C(=O)N[C@@H](CS)C(=O)O [listing 2 of 2 here],"rank of improvement among tested derivatives, ex vivo lens stiffness",[1],superior lens stiffness reducing efficacy
same,Avg. % Compress.,[1],6.87%
same,improvement over NAC in vivo,[3]; 200 mM vs N-acetylcysteine 20 mM,significant improvement
same,lens stiffness lost to aging from 2-8 months restored,"[3]; 200 mM, relative to 2-month-old untreated mice and 8-month vehicle",67.9%
same,average total compression,[3],281.05 micrometers
same,lens stiffness versus vehicle treated mice,[3],significantly reduced
same,tolerability,"[4]; 200 mM, 2×/day for 1 week",tolerable
same,Histology of treated lenses,"[4]; mouse, in vivo",entirely normal
same,solubility,[2],200 mM
same,aqueous humor concentration and corneal penetration over NAC and N-pivaloylcysteine,[5],improved
same,concentration at 1 h,[5]; [11],47 µM
same,Safety via histology,[6],positive
same,increase of tolerability issues including blinking or hyperemia over time,[6],No noticeable increase
COC(C)(C)C(=O)N[C@@H](CS)C(=O)O,Avg. % Compress.,[1],6.38%
CC(C)(C(=O)N[C@@H](CS)C(=O)O)c1ccccc1,Avg. % Compress.,[1],6.18%
CC(C)(N)C(=O)N[C@@H](CS)C(=O)O (H-[Aib]-Cys-OH),Avg. % Compress.,[1],5.68%
"C[N+](C)(C)CCOC(=O)CCCC[C@@H]1CCSS1 [LACE, Lipoic acid choline ester, reference compound]",average total compression,[3],209.68 micrometers
same,lens stiffness versus vehicle treated mice,[3],did not significantly improve
CC(C)C(=O)N[C@@H](CS)C(=O)O [N-(isopropylcarbonyl)-cysteine],Avg. % Compress.,[1],6.71%
CCCCCC(=O)N[C@@H](CS)C(=O)O [N-(n-pentylcarbonyl)-cysteine],Avg. % Compress.,[1],4.31%
CC(=O)N[C@H](CS)C(=O)O [N-acetyl-D-cysteine],improvement versus vehicle (lens stiffness),"[7]; a later study, conditions not given",significant improvement versus vehicle but at a reduced power versus NAC
"CC(=O)N[C@@H](CS)C(=O)O [N-acetyl-cysteine, reference compound]",Avg. % Compress.,[1],5.76%
same,lens stiffness compared to untreated (vehicle) control lenses,[1]; ex vivo screen,significantly improved
same,improvement in lens stiffness over vehicle,[7]; 20 mM eyedrops 2×/day for one month,minor and insignificant improvement
same,improvement in lens stiffness over vehicle,"[7]; 100 mM eyedrops 2×/day for one month, 588 mg and 1047 mg weights",significant improvement
same,aqueous humor concentration,[5]; [11],17 out of 20 samples falling below the limit of detection
same,improvement of lens stiffness compared to vehicle,[8],2.07%
O=C(Cc1ccccc1)N[C@@H](CS)C(=O)O [N-benzylcarbonyl-cysteine],Avg. % Compress.,[1],4.38%
O=C(N[C@@H](CS)C(=O)O)C1CC1 [N-cyclopropylcarbonyl-cysteine],Avg. % Compress.,[1],6.02%
CN(C)C(=O)N[C@@H](CS)C(=O)O [N-dimethylaminocarbonyl-cysteine],Avg. % Compress.,[1],4.19%
O=C(N[C@@H](CS)C(=O)O)c1ccccc1 [N-phenylcarbonyl-cysteine],Avg. % Compress.,[1],5.98%
"CC(C)(C)C(=O)N[C@@H](CS)C(=O)O [N-pivaloylcysteine, N-(2,2-dimethyl-1-oxopropyl)-cysteine]",improvement over NAC in ex vivo lens stiffness,[1],significant improvement
same,"rank of improvement among tested derivatives, ex vivo lens stiffness",[1],largest improvement
same,Avg. % Compress.,[1],6.82%
same,concentration at 1 h,[5]; [11],38 µM
same,Safety via histology,[6],positive
same,increase of tolerability issues including blinking or hyperemia over time,[6],No noticeable increase
"CC(=O)N[C@@H](CSC(C)=O)C(=O)O [S,N-diacetylcysteine]",lens stiffness in ex vivo treated aged mouse lenses,[9],reduces lens stiffness

# From US20260035345A1 (Lento Bio, Inc., priority 2023, published 2026)
